Reference: patent publication US20240083900A1, “PYRAZOLO[1,5-A]PYRAZINE DERIVATIVES AS BTK INHIBITORS” (BIOGEN MA INC., priority 2020, published 2024)
Where two headings read alike, the source gives them in different places.

What was measured:
[1] = tested on: CD69 expression on CD19+ B cells in human whole blood stimulated with anti-human IgD; assay: In Vitro whole blood CD69 Assay; type: cell-based; conditions: human heparinized whole blood, anti-human IgD stimulation overnight, percentage of CD19+ B cells expressing CD69, flow cytometry
BTK = BTK (Homo sapiens (Human), UniProt Q06187); assay: In Vitro BTK Kinase Assay: Btk-PolyGAT-LS Assay; type: biochemical; conditions: BTK enzyme 0.25 nM, ATP 10 μM, polyGAT 100 nM, 30 minutes incubation, TRF readout
Chain of BTK (Q06187 whole entry): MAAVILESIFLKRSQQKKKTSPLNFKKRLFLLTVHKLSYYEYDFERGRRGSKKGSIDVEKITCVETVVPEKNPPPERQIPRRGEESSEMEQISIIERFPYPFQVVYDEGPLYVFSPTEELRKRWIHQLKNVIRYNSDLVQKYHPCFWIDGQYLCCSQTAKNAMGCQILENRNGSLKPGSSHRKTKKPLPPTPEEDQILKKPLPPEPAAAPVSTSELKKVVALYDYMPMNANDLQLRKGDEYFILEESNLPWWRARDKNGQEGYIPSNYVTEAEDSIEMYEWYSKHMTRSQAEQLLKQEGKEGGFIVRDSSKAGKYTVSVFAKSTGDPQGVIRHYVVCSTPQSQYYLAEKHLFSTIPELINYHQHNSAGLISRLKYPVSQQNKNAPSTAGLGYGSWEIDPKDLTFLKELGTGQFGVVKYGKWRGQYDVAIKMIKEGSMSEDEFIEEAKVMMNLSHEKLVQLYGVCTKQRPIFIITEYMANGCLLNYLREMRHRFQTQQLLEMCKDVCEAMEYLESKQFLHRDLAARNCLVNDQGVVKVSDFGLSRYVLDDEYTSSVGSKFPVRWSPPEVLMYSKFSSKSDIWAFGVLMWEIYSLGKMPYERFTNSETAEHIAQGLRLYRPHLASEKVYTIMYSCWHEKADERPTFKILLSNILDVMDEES
Method in brief: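 Human BTK activity was measured with final 10 μM ATP and 100 nM polyGAT substrate in pH 7.5 Tris buffer with 10 mM MgCl2, DTT, Triton X-100 and casein.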

[2] = Homo sapiens, B-cell, read-out: IC50

Structure (SMILES) | IC50 (BTK; read-out: IC50) | IC50 [1, 2] | also measured
C=CC(=O)N1C[C@H]2C[C@@H](C1)[C@@H]2COc1nc(-c2cnn(C)c2)cn2nccc12 [Example 127, 1-((1R,5S,6r)-6-(((6-(1-methyl-1H-pyrazol-4-yl)pyrazolo[1,5-a]pyrazin-4-yl)oxy)methyl)-3-azabicyclo[3.1.1]heptan-3-yl)prop-2-en-1-one] | < 1 nM | – | IC50 ([1]; read-out: IC50): 1 to 10 µM
C=CC(=O)N1[C@H]2CC[C@@H]1[C@H](Oc1nc(-c3cnn(C)c3)cn3nccc13)C2 [Example 234, 1-((1R,2R,4S)-2-((6-(1-methyl-1H-pyrazol-4-yl)pyrazolo[1,5-a]pyrazin-4-yl)oxy)-7-azabicyclo[2.2.1]heptan-7-yl)prop-2-en-1-one] | < 1 nM | 1 to 10 µM | –
C=CC(=O)N(C)[C@@H]1C[C@@](C)(Oc2nc(-c3cnn(C)c3)cn3nccc23)[C@H]1C (single isomer, unassigned) [Example 108] | < 1 nM | – | IC50 ([1]; Homo sapiens, B-cell): < 1 µM
C#CC(=O)N1CC[C@@H](Oc2nc(-c3cnn(C)c3)cn3nccc23)C1 [Example 13, (R)-1-(3-((6-(1-methyl-1H-pyrazol-4-yl)pyrazolo[1,5-a]pyrazin-4-yl)oxy)pyrrolidin-1-yl)prop-2-yn-1-one] | < 1 nM | < 1 µM | –
C[C@@H]1O[C@H]1C(=O)N1CC[C@@H]2[C@H]1C[C@@]2(C)Oc1nc(-c2cnn(C)c2)cn2nccc12 [Example 192, ((1R,5R,6R)-6-methyl-6-((6-(1-methyl-1H-pyrazol-4-yl)pyrazolo[1,5-a]pyrazin-4-yl)oxy)-2-azabicyclo[3.2.0]heptan-2-yl)((2R,3S)-3-methyloxiran-2-yl)methanone] | 10 to 1000 nM | 1 to 10 µM | –
C=CC(=O)N(C)[C@H]1C[C@@](C)(Oc2nc(-c3cnn(C)c3)cn3nccc23)C1(C)C (single isomer, unassigned) [Example 141] | – | – | IC50 [1]: 1 to 10 µM; IC50 (BTK; IC50 (nM)): 1 to 10 nM
C#CC(=O)NCC1CCCCN1c1nc(-c2cnn(C)c2)cn2nccc12 (single isomer, unassigned) [Example 26 E2, N-[[1-[6-(1-methylpyrazol-4-yl)pyrazolo[1,5-a]pyrazin-4-yl]-2-piperidyl]methyl]prop-2-ynamide] | < 1 nM | – | IC50 ([1]; listed as 26 E2, read-out: IC50): < 1 µM
C=CC(=O)N[C@H]1C[C@@](C)(Oc2nc(-c3cnc(C)s3)cn3nccc23)C1 [Example 186, N-((1s,3s)-3-methyl-3-((6-(2-methylthiazol-5-yl)pyrazolo[1,5-a]pyrazin-4-yl)oxy)cyclobutyl)acrylamide] | < 1 nM | < 1 µM | –
C=CC(=O)N1CC[C@@H]2[C@H]1C(C)(C)[C@H]2Oc1nc(-c2cnn(C)c2)cn2nccc12 [Example 170, 1-((1S,5R,6S)-7,7-dimethyl-6-((6-(1-methyl-1H-pyrazol-4-yl)pyrazolo[1,5-a]pyrazin-4-yl)oxy)-2-azabicyclo[3.2.0]heptan-2-yl)prop-2-en-1-one] | 10 to 1000 nM | 1 to 10 µM | –
C=CS(=O)(=O)N1CCC[C@@H](Oc2nc(-c3cnn(C)c3)cn3nccc23)CC1 [Example 28, (R)-6-(1-methyl-1H-pyrazol-4-yl)-4-((1-(vinylsulfonyl)azepan-4-yl)oxy)pyrazolo[1,5-a]pyrazine] | < 1 nM | < 1 µM | –
CC#CC(=O)N(C)[C@@H]1CCC[C@H](Oc2nc(-c3cnn(C)c3)cn3nccc23)C1 [Example 178, N-methyl-N-((1R,3S)-3-((6-(1-methyl-1H-pyrazol-4-yl)pyrazolo[1,5-a]pyrazin-4-yl)oxy)cyclohexyl)but-2-ynamide] | 10 to 1000 nM | 1 to 10 µM | –
C=CC(=O)N1CCC[C@H](COc2nc(-c3cnn(C)c3)cn3nccc23)C1 [Example 14, (S)-1-(3-(((6-(1-methyl-1H-pyrazol-4-yl)pyrazolo[1,5-a]pyrazin-4-yl)oxy)methyl)piperidin-1-yl)prop-2-en-1-one] | 1 to 10 nM | > 10 µM | –
C=CC(=O)N1CCC[C@@H](Oc2nc(-c3cnn(C)c3)cc3nccn23)CC1 (single isomer, unassigned) [Example 34, (S) or (R)-1-(4-((7-(1-methyl-1H-pyrazol-4-yl)imidazo[1,2-c]pyrimidin-5-yl)oxy)azepan-1-yl)prop-2-en-1-one] | 1 to 10 nM | < 1 µM | –
C=CC(=O)N1CCCC[C@@H](Oc2nc(-c3cnn(C)c3)cn3nccc23)C1 [Example 56, 1-[(3R)-3-[6-(1-methylpyrazol-4-yl)pyrazolo[1,5-a]pyrazin-4-yl]oxyazepan-1-yl]prop-2-en-1-one] | 1 to 10 nM | > 10 µM | –
C=CC(=O)NC1CCCN(c2nc(-c3cnn(C)c3)cn3nccc23)C1 (stereo not shown) [Example 20, N-[1-[6-(1-methylpyrazol-4-yl)pyrazolo[1,5-a]pyrazin-4-yl]-3-piperidyl]prop-2-enamide] | 10 to 1000 nM | > 10 µM | –
C=CC(=O)N1CCC[C@@](F)(COc2nc(-c3cnn(C)c3)cn3nccc23)C1 [Example 188, (S)-1-(3-fluoro-3-(((6-(1-methyl-1H-pyrazol-4-yl)pyrazolo[1,5-a]pyrazin-4-yl)oxy)methyl)piperidin-1-yl)prop-2-en-1-one] | 1 to 10 nM | < 1 µM | –
CN[C@H]1C[C@@](C)(Oc2nc(-c3cnn(C)c3)cn3nccc23)C1(C)C (racemic) [Example 139, racemic (1S,3R)—N,2,2,3-tetramethyl-3-((6-(1-methyl-1H-pyrazol-4-yl)pyrazolo[1,5-a]pyrazin-4-yl)oxy)cyclobutan-1-amine] | < 1 nM | – | IC50 ([1]; read-out: IC50): < 1 µM
C#CC(=O)NC1CCCN(c2nc(-c3cnn(C)c3)cn3nccc23)C1 (stereo not shown) [Example 21, N-[1-[6-(1-methylpyrazol-4-yl)pyrazolo[1,5-a]pyrazin-4-yl]-3-piperidyl]prop-2-ynamide] | 1 to 10 nM | 1 to 10 µM | –
CC#CC(=O)N(CC(F)F)[C@H]1C[C@@](C)(Oc2nc(-c3cnn(C)c3)cn3nccc23)C1 [Example 233, N-(2,2-difluoroethyl)-N-((1s,3s)-3-methyl-3-((6-(1-methyl-1H-pyrazol-4-yl)pyrazolo[1,5-a]pyrazin-4-yl)oxy)cyclobutyl)but-2-ynamide] | < 1 nM | < 1 µM | –
CC#CC(=O)N(C)[C@H]1CCC[C@@H](Oc2nc(-c3cnn(C)c3)cn3ncc(F)c23)C1 [Example 92, N-((1S,3R)-3-((3-fluoro-6-(1-methyl-H-pyrazol-4-yl)pyrazolo[1,5-a]pyrazin-4-yl)oxy)cyclohexyl)-N-methylbut-2-ynamide] | < 1 nM | 1 to 10 µM | –
CN(C)C/C=C/C(=O)N(C)[C@H]1CCC[C@@H](Oc2nc(-c3cnn(C)c3)cn3ncc(F)c23)C1 [Example 93, (E)-4-(dimethylamino)-N-((1S,3R)-3-((3-fluoro-6-(1-methyl-1H-pyrazol-4-yl)pyrazolo[1,5-a]pyrazin-4-yl)oxy)cyclohexyl)-N-methylbut-2-enamide] | 1 to 10 nM | < 1 µM | –
C=CC(=O)N1CCOC[C@@H](Oc2nc(-c3cnn(C)c3)cn3nccc23)C1 [Example 54, (S)-1-(6-((6-(1-methyl-1H-pyrazol-4-yl)pyrazolo[1,5-a]pyrazin-4-yl)oxy)-1,4-oxazepan-4-yl)prop-2-en-1-one] | 1 to 10 nM | > 10 µM | –
CC#CC(=O)N(C)[C@H]1CC[C@@H]2C[C@]2(Oc2nc(-c3cnn(C)c3)cn3nccc23)C1 (single isomer, unassigned) [Example 113] | 1 to 10 nM | 1 to 10 µM | –
C#CC(=O)N1CCC[C@H](Oc2nc(-c3cnn(C)c3)cn3nccc23)CC1 [Example 31, (S)-1-(4-((6-(1-methyl-1H-pyrazol-4-yl)pyrazolo[1,5-a]pyrazin-4-yl)oxy)azepan-1-yl)prop-2-yn-1-one] | < 1 nM | 1 to 10 µM | –
C[C@H]1O[C@@H]1C(=O)N1CC[C@@H]2[C@H]1C[C@]2(C)Oc1nc(-c2cnn(C)c2)cn2nccc12 (single isomer, unassigned) [Example 193] | 1 to 10 nM | 1 to 10 µM | –
C=CS(=O)(=O)N1CC[C@@H](Oc2nc(-c3cnn(C)c3)cn3nccc23)C1 [Example 12, (R)-6-(1-methyl-1H-pyrazol-4-yl)-4-((1-(vinylsulfonyl)pyrrolidin-3-yl)oxy)pyrazolo[1,5-a]pyrazine] | 1 to 10 nM | > 10 µM | –
C[C@@H]1O[C@H]1C(=O)N[C@H]1CC[C@@H](Oc2nc(-c3cnn(C)c3)cn3nccc23)C1 (single isomer, unassigned) [Example 148] | 1 to 10 nM | < 1 µM | –
C=CS(=O)(=O)N1CCC[C@H](Oc2nc(-c3cnn(C)c3)cn3nccc23)C1 [Example 6, (S)-6-(1-methyl-1H-pyrazol-4-yl)-4-((1-(vinylsulfonyl)piperidin-3-yl)oxy)pyrazolo[1,5-a]pyrazine] | 10 to 1000 nM | > 10 µM | –
C=CC(=O)N1CCC[C@H](Oc2nc(-c3ccc(=O)n(C)c3)cn3nccc23)CC1 (single isomer, unassigned) [Example 71 E1] | 1 to 10 nM | < 1 µM | –
